Results on two molecules are retold here after US10654890B2, “Cyclic peptide derivative, method for preparing same and composition thereof” (priority 2014, dated 2020).

SMILES strings stand for the structures. Structures can show the parent of a compound that is named as a salt.

One experiment relates to culture astrocyte. The experiment is described as follows: Astrocyte proliferative activity test (BrdU cell proliferation ELISA). It counts as cell-based, mouse. Here is the method:
A pregnant ICR female mouse was purchased from Japan SLC, Inc., and a neonatal mouse 24 to 48 after birth was used for the test.
A neonatal ICR mouse (24 to 48 after birth) was sufficiently sterilized with 70% ethanol, immersed in 30 ml of PBS (−) in a 100 mm dish (diameter of 100 mm, Orange Scientific) for cell culture, and then placed in a clean bench. The neonatal mouse was subjected to cervical dislocation using tweezers and euthanized. Head of the neonatal mouse was open and the entire brain was removed. The obtained brain was transferred to a 100 mm dish for cell culture in which 15 ml of high glucose Dulbecco's modified Eagle medium (HG-D-MEM, Wako Pure Chemical Industries, Ltd.) is added. By using tweezers, the olfactory bulb, median eminence, and meninges were removed in the medium to obtain only a cerebrum having hippocampus. Subsequently, the obtained cerebrum was transferred to a 100 mm dish for cell culture added with 10 ml of HG-D-MEM, and using a scalpel, the cerebrum was finely cut to be 1 mm^2 or less. The cerebrum after cutting was transferred, together with the medium, to a 50 ml conical tube (TPP), and after allowing it to stand for 2 minutes, the supernatant was removed. Subsequently, the cerebrum after cutting was added with 4 ml of fresh HG-D-MEM, and after further adding 400 μl of 2.5% trypsin (SIGMA) and 40 μl of 1% DNase I (SIGMA), the cerebrum was incubated in a water bath at 37° C. for 10 minutes under intermittent stirring. Subsequently, to the cerebrum after cutting, 10 ml of HG-D-MEM (10% FBS) was added to terminate the reaction of trypsin followed by centrifuge for 3 minutes at 1,000×g using a centrifuge (H-9R, KOKUSAN Co., Ltd.). The supernatant was collected by an electric pipette, 10 ml of HG-D-MEM (10% FBS) was added to a precipitated cell mass, and pipetting using a sterile pipette was carried out several times until the cell mass is not observed. To remove the remaining cell mass from this cell dispersion, the cell dispersion was passed through a cell strainer (pore diameter of 100 μm, BD Falcon™), and the number of cells in the cell dispersion which has passed through the cell strainer was counted by using a cell counting plate. An adjustment was made with HG-D-MEM (10% FBS) such that the number of cells is 6.0×10^5 cells/ml. After the adjustment of the number of cells, the cell dispersion was seeded, in an amount of 7 ml for each, to a Poly-D-Lysine Cellware 100 mm Dish (PDL 100 mm dish, BD Falcon™). 96 Hours after the seeding, the medium was removed once using an aspirator, and after briefly washing the inside of a 100 mm PDL dish with 10 ml of PBS (−), the medium exchange was carried out by newly adding 7 ml of HG-D-MEM. The above method and the astrocyte preparation described below were carried out based on the method of McCarthy and de Vellis (1980, Non Patent Literature 30).
72 Hours after the medium exchange, the 100 mm PDL dish seeded with the cell broth was removed from the incubator, and tightly covered using a parafilm and fixed by overlaying 3 to 4 dishes. The resultant was cultured by shaking using a bioshaker (MULTI SHAKER MMS, INCUBATOR FMS/EYELA) under a condition including 37° C., 100 rpm, and 20 hours, and the neuronal cells, cell debris, dead cells or the like were liberated. At that time, in the inside the 100 mm PDL dish, only the astrocyte as a glial cell in central nervous system other than neuron was adhered (hereinbelow, described as culture astrocyte). After the shaking, the 100 mm PDL dish was transferred to a clean bench, the supernatant was removed by an aspirator and washed with 10 ml of PBS (−), and after adding 1 ml of 2.5% trypsin (SIGMA) using a Pasteur pipette, the dish was left to stand in an incubator for 10 minutes. The 100 mm PDL dish was again brought back to the clean bench, and added with 10 ml of Dulbecco's modified Eagle medium (D-MEM, Wako Pure Chemical Industries, Ltd.) (10% FBS). […]
(In an ELISA, binding on a coated surface is turned into a signal by an enzyme label.)

Experiment [1] concerns senescence-accelerated model mouse SAMP8. The experiment is described as follows: Coefficient of friction measurement test of body hair. It counts as in vivo. From the text:
Considering that the anti-aging effect for body hair and hair has been analyzed until now by using a senescence-accelerated model mouse (SAMP8) (Non Patent Literature 40), the inventors of the present invention also conducted an analysis regarding the anti-aging effect for body hair and hair for a senescence-accelerated model mouse administered with the cyclic peptide derivative by using a static and dynamic friction tester and a scanning probe microscope (SPM).
Coefficient of friction of animal hair and body hair is closely related to the state of cuticle as a scale-like tissue present on a surface of hair and body hair, and it is considered that the value of coefficient of friction (COF) increases as damages on cuticle of a hair and body hair increases (Non Patent Literature 40). It is also known that, when the damages on cuticle are high, moisture or nutrients of hair and body hair are lost from the damaged part of cuticle.
As for the apparatus, a handy rub tester TL701 (manufactured by Trinity-Lab Inc.), which is a static and dynamic friction tester, was used. […] Namely, the apparatus even allows measurement of friction on a surface of skin or materials which have a complex curved surface.
The contact member of a static and dynamic friction tester was closely pressed on body hair on forehead part of a mouse, and while applying a load of about 1 N, the member was moved, through an area between two ears, from the forehead to neck part of the mouse for about ten seconds, and the coefficient of friction (COF) was measured. The coefficient of friction (COF) was measured 5 to 10 times per mouse, and an average value thereof was calculated.

On to `COc1cc2c(cc1OC)C(=O)C(CC1CCN(Cc3ccccc3)CC1)C2` (centres unmarked) [donepezil hydrochloride, reference compound], for which the astrocyte proliferative activity entry in the experiment on culture astrocyte (25 μM, FIG. 8 and FIG. 9) is “no significant astrocyte proliferative activity was observed”. The “coefficient of friction (COF) of body hair” value in experiment [1] (SAMP8, oral donepezil hydrochloride 1250 μg/kg/day) is listed as “the same level as that of the senescence-accelerated model mouse”.
For `CCC1(C)Oc2cc(ccc2O)C(O)C(NC)C(=O)NC(C(C)C)C(=O)NC1C(=O)NC(CCC(=O)O)C(=O)O` (centres unmarked) [cyclic peptide derivative], the “astrocyte proliferation compared to the control group” value in the experiment on culture astrocyte (25 μM, FIG. 7) is recorded as “about 12 times”. Further, the “astrocyte proliferation accelerating activity” value in the experiment with culture astrocyte (0.1, 1, 5, 10, 25, and 50 μM, 24 hours exposure, FIG. 6) is on record as “observed with concentration dependency”. Further, the astrocyte proliferative activity result in the experiment on culture astrocyte (extracts and fractions of the isolation and purification steps, listed as F3-10-4-5-3) is given as “significant astrocyte proliferative activity”; in the experiment on culture astrocyte (extracts and fractions of the isolation and purification steps, listed as F-3-10-4-5-3) it was “containing the components with an astrocyte proliferative activity”. Besides, the “coefficient of friction (COF) of body hair” value is given as “lowered to the same level as those of a mouse with normal aging” in experiment [1] (SAMP8, oral 2.5 μg/kg/day) and “lowered to the same level as those of a mouse with normal aging” in experiment [1] (SAMP8, oral 25 μg/kg/day).
